For 10 molecules, IC50 and Ki results are on record in ChEMBL document CHEMBL1909046, “DrugMatrix in vitro pharmacology data”.

The structures appear in SMILES notation.

In one assay the target is Tyrosine-protein kinase Fyn (Homo sapiens, UniProt P06241). Briefly: biochemical. The format is cell-based, Insect cells. The note with it: insect cells.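 Also: enzymatic inhibition of Fyn kinase activity measured with Poly(Glu:Tyr) as the phosphorylation substrate; in other assays of this panel Not Active means under 50% inhibition at 10 µM.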
Chain of Tyrosine-protein kinase Fyn (P06241 whole entry): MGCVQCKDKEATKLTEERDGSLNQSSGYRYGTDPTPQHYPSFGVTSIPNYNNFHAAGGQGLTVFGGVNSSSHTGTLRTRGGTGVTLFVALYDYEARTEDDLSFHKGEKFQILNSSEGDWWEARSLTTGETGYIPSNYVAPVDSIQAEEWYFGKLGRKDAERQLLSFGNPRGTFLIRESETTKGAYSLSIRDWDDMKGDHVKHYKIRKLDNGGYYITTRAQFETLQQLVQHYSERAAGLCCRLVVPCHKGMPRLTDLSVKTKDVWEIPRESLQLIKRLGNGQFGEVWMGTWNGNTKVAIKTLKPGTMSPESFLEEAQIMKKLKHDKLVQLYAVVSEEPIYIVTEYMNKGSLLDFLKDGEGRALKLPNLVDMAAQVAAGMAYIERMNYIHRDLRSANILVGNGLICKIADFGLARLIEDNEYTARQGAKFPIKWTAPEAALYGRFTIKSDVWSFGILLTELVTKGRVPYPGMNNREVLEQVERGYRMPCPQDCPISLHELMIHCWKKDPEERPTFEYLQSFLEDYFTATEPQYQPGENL
As for `COc1cc2c3cc1Oc1cc(ccc1O)C[C@@H]1c4c(cc(OC)c(O)c4Oc4ccc(cc4)C[C@@H]3N(C)CC2)CC[N+]1(C)C.[Cl-]`, the IC50 result is “Not Active”.

In the case of `CN(Cc1ccc(C(C)(C)C)cc1)Cc1cccc2ccccc12` [BUTENAFINE], the IC50 result is “Not Active”.

In the case of `Sc1ncnc2nc[nH]c12` [MERCAPTOPURINE ANHYDROUS], the IC50 entry is recorded as “Not Active”.

Consider `CC(C)(C)NCC(O)c1cc(Cl)c(N)c(Cl)c1` (centres undefined) [CLENBUTEROL], for which the IC50 entry is “Not Active”.

As for `Nc1nc2c(ncn2COCCO)c(=O)[nH]1` [ACYCLOVIR], the IC50 entry is reported as “Not Active”.

As for `c1ccc2c(c1)c1cccc3ccc4cccc2c4c31` [BENZO[E]PYRENE], the IC50 result was “Not Active”.

As for `O=C(O)CCCc1ccc(N(CCCl)CCCl)cc1` [CHLORAMBUCIL], the IC50 entry is “Not Active”.

In the case of `Cc1ccc(N(CC2=NCCN2)c2cccc(O)c2)cc1` [PHENTOLAMINE], the IC50 entry is reported as “Not Active”.

For `CC(C)(Oc1ccc(Cl)cc1)C(=O)O` [CLOFIBRIC ACID], the IC50 entry was “Not Active”.

For the molecule `CC1(C)O[C@@H]2C[C@H]3[C@@H]4CCC5=CC(=O)CC[C@]5(C)[C@@]4(F)[C@@H](O)C[C@]3(C)[C@]2(C(=O)CCl)O1` [HALCINONIDE], the IC50 result was “Not Active”.

Another assay concerns the target T1, Muscarinic acetylcholine receptor M5 (Homo sapiens, UniProt P08912). Also: in other assays of this panel Not Active means under 50% inhibition at 10 µM.
T1 sequence (P08912 whole entry): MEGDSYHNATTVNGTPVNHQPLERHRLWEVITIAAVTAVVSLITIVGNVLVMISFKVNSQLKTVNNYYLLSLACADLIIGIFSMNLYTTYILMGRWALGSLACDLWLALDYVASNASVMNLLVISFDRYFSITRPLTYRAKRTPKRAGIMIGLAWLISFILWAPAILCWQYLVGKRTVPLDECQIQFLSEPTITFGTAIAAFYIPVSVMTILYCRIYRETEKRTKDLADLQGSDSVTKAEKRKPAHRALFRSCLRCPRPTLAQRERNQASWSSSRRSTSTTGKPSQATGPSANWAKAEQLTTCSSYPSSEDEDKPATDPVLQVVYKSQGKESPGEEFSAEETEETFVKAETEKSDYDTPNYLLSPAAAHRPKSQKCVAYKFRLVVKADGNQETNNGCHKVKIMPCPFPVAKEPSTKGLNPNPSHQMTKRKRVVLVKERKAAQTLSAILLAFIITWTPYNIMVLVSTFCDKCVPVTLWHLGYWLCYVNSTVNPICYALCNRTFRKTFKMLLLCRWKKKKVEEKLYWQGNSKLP
Assay: not given
The format is cell membranes, CHO-K1, Membrane. The note with it: cho-k1.
`COc1cc2c3cc1Oc1cc(ccc1O)C[C@@H]1c4c(cc(OC)c(O)c4Oc4ccc(cc4)C[C@@H]3N(C)CC2)CC[N+]1(C)C.[Cl-]`: the IC50 result is on record as “Not Active”.

With `CN(Cc1ccc(C(C)(C)C)cc1)Cc1cccc2ccccc12` [BUTENAFINE], the IC50 entry is “Not Active”.

As for `Sc1ncnc2nc[nH]c12` [MERCAPTOPURINE ANHYDROUS], the IC50 entry was “Not Active”.

As to `CC(C)(C)NCC(O)c1cc(Cl)c(N)c(Cl)c1` (centres undefined) [CLENBUTEROL], the IC50 result was “Not Active”.

For `Nc1nc2c(ncn2COCCO)c(=O)[nH]1` [ACYCLOVIR], the IC50 result is “Not Active”.

For `c1ccc2c(c1)c1cccc3ccc4cccc2c4c31` [BENZO[E]PYRENE], the IC50 result is listed as “Not Active”.

For the molecule `O=C(O)CCCc1ccc(N(CCCl)CCCl)cc1` [CHLORAMBUCIL], the IC50 result is recorded as “Not Active”.

Take `Cc1ccc(N(CC2=NCCN2)c2cccc(O)c2)cc1` [PHENTOLAMINE]: the IC50 entry is “Not Active”.

`CC(C)(Oc1ccc(Cl)cc1)C(=O)O` [CLOFIBRIC ACID]: the IC50 entry is recorded as “Not Active”.

As to `CC1(C)O[C@@H]2C[C@H]3[C@@H]4CCC5=CC(=O)CC[C@]5(C)[C@@]4(F)[C@@H](O)C[C@]3(C)[C@]2(C(=O)CCl)O1` [HALCINONIDE], the IC50 entry was “Not Active”.

Another assay has as its target T2, C-C chemokine receptor type 4 (Homo sapiens, UniProt P51679). Also: in other assays of this panel Not Active means under 50% inhibition at 10 µM.
T2 sequence (P51679 whole entry): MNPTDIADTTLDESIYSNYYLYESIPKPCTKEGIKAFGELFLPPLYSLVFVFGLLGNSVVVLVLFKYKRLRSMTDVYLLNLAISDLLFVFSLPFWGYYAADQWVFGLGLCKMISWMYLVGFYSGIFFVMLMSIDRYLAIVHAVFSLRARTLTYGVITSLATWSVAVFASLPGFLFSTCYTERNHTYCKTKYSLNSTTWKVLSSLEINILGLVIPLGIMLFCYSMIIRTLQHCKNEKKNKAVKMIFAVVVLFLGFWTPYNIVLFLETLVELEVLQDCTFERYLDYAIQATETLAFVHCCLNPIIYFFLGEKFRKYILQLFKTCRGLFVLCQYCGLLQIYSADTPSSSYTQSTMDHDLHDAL
Assay: not given
The class given is cell membranes, Chem-1, Membrane. The note with it: chem-1.
`COc1cc2c3cc1Oc1cc(ccc1O)C[C@@H]1c4c(cc(OC)c(O)c4Oc4ccc(cc4)C[C@@H]3N(C)CC2)CC[N+]1(C)C.[Cl-]`: the IC50 result is “Not Active”.

For `CN(Cc1ccc(C(C)(C)C)cc1)Cc1cccc2ccccc12` [BUTENAFINE], the IC50 result is reported as “Not Active”.

As to `Sc1ncnc2nc[nH]c12` [MERCAPTOPURINE ANHYDROUS], the IC50 result was “Not Active”.

For the molecule `CC(C)(C)NCC(O)c1cc(Cl)c(N)c(Cl)c1` (centres undefined) [CLENBUTEROL], the IC50 result was “Not Active”.

On to `Nc1nc2c(ncn2COCCO)c(=O)[nH]1` [ACYCLOVIR], for which the IC50 result is given as “Not Active”.

Take `c1ccc2c(c1)c1cccc3ccc4cccc2c4c31` [BENZO[E]PYRENE]: the IC50 result is “Not Active”.

Consider `O=C(O)CCCc1ccc(N(CCCl)CCCl)cc1` [CHLORAMBUCIL], for which the IC50 entry was “Not Active”.

For the molecule `Cc1ccc(N(CC2=NCCN2)c2cccc(O)c2)cc1` [PHENTOLAMINE], the IC50 result is listed as “Not Active”.

Consider `CC(C)(Oc1ccc(Cl)cc1)C(=O)O` [CLOFIBRIC ACID], for which the IC50 entry is given as “Not Active”.

On to `CC1(C)O[C@@H]2C[C@H]3[C@@H]4CCC5=CC(=O)CC[C@]5(C)[C@@]4(F)[C@@H](O)C[C@]3(C)[C@]2(C(=O)CCl)O1` [HALCINONIDE], for which the IC50 entry is “Not Active”.

In a further assay the target is Cannabinoid receptor 1 (Homo sapiens, UniProt P21554). Also: in other assays of this panel Not Active means under 50% inhibition at 10 µM.
Chain of Cannabinoid receptor 1 (P21554 whole entry): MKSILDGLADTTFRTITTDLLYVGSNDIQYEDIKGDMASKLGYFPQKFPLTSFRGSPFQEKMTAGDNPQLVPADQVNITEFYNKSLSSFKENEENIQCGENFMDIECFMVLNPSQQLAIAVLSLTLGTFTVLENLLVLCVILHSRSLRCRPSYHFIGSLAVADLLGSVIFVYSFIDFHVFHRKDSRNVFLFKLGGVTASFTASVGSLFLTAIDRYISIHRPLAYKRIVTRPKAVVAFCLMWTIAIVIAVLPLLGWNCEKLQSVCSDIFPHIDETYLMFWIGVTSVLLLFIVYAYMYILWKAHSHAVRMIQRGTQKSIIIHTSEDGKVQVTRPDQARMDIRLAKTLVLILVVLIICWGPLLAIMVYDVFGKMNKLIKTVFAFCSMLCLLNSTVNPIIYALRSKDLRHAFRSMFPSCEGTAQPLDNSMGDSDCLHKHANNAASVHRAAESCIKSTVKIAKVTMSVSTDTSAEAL
Assay: not given
The note with it: chem-1. The format is cell membranes, Membrane.
Regarding `COc1cc2c3cc1Oc1cc(ccc1O)C[C@@H]1c4c(cc(OC)c(O)c4Oc4ccc(cc4)C[C@@H]3N(C)CC2)CC[N+]1(C)C.[Cl-]`, the IC50 entry is recorded as “Not Active”.

As for `CN(Cc1ccc(C(C)(C)C)cc1)Cc1cccc2ccccc12` [BUTENAFINE], the IC50 result was “Not Active”.

On to `Sc1ncnc2nc[nH]c12` [MERCAPTOPURINE ANHYDROUS], for which the IC50 entry is “Not Active”.

Consider `CC(C)(C)NCC(O)c1cc(Cl)c(N)c(Cl)c1` (centres undefined) [CLENBUTEROL], for which the IC50 result is “Not Active”.

Regarding `Nc1nc2c(ncn2COCCO)c(=O)[nH]1` [ACYCLOVIR], the IC50 entry is recorded as “Not Active”.

With `c1ccc2c(c1)c1cccc3ccc4cccc2c4c31` [BENZO[E]PYRENE], the IC50 result is on record as “Not Active”.

For the molecule `O=C(O)CCCc1ccc(N(CCCl)CCCl)cc1` [CHLORAMBUCIL], the IC50 entry is “Not Active”.

Turning to `Cc1ccc(N(CC2=NCCN2)c2cccc(O)c2)cc1` [PHENTOLAMINE], the IC50 result is recorded as “Not Active”.

Consider `CC(C)(Oc1ccc(Cl)cc1)C(=O)O` [CLOFIBRIC ACID], for which the IC50 result is “Not Active”.

Turning to `CC1(C)O[C@@H]2C[C@H]3[C@@H]4CCC5=CC(=O)CC[C@]5(C)[C@@]4(F)[C@@H](O)C[C@]3(C)[C@]2(C(=O)CCl)O1` [HALCINONIDE], the IC50 result is “Not Active”.

In a further assay the target is T3, 5-hydroxytryptamine receptor 2C (Homo sapiens, UniProt P28335).
T3 sequence (P28335 whole entry): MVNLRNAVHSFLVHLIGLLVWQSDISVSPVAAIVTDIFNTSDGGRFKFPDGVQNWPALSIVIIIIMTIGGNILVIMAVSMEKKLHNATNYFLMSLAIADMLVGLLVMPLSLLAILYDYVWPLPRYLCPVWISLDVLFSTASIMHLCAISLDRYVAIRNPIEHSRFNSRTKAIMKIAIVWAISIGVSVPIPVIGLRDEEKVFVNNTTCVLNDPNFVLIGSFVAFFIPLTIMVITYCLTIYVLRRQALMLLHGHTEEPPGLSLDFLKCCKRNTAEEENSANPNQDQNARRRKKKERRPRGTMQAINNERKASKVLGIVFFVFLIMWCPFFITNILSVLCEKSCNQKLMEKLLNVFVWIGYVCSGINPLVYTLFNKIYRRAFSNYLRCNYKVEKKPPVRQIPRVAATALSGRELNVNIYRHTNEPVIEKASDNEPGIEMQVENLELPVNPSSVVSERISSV
Briefly: DRUGMATRIX: Serotonin (5-Hydroxytryptamine) 5-HT2C radioligand binding (ligand: [3H] Mesulergine). The class given is cell membranes, CHO-K1, Membrane. The note with it: cho-k1; Not Active = under 50% inhibition at 10 µM.
As for `COc1cc2c3cc1Oc1cc(ccc1O)C[C@@H]1c4c(cc(OC)c(O)c4Oc4ccc(cc4)C[C@@H]3N(C)CC2)CC[N+]1(C)C.[Cl-]`, the IC50 entry is given as “Not Active”.

With `CN(Cc1ccc(C(C)(C)C)cc1)Cc1cccc2ccccc12` [BUTENAFINE], the IC50 result is reported as “Not Active”.

In the case of `Sc1ncnc2nc[nH]c12` [MERCAPTOPURINE ANHYDROUS], the IC50 result is on record as “Not Active”.

With `CC(C)(C)NCC(O)c1cc(Cl)c(N)c(Cl)c1` (centres undefined) [CLENBUTEROL], the IC50 entry was “Not Active”.

Consider `Nc1nc2c(ncn2COCCO)c(=O)[nH]1` [ACYCLOVIR], for which the IC50 result was “Not Active”.

For the molecule `c1ccc2c(c1)c1cccc3ccc4cccc2c4c31` [BENZO[E]PYRENE], the IC50 entry was “Not Active”.

On to `O=C(O)CCCc1ccc(N(CCCl)CCCl)cc1` [CHLORAMBUCIL], for which the IC50 entry was “Not Active”.

Turning to `CC(C)(Oc1ccc(Cl)cc1)C(=O)O` [CLOFIBRIC ACID], the IC50 entry is on record as “Not Active”.

On to `CC1(C)O[C@@H]2C[C@H]3[C@@H]4CCC5=CC(=O)CC[C@]5(C)[C@@]4(F)[C@@H](O)C[C@]3(C)[C@]2(C(=O)CCl)O1` [HALCINONIDE], for which the IC50 result was “Not Active”.

Test system in the next assay: not listed separately
Briefly: DRUGMATRIX: GABAA, Flunitrazepam, Central radioligand binding (ligand: [3H] Flunitrazepam). The format is cell membranes, Rattus norvegicus, Wistar, Brain, Membrane. The note with it: Not Active = under 50% inhibition at 10 µM.
For `COc1cc2c3cc1Oc1cc(ccc1O)C[C@@H]1c4c(cc(OC)c(O)c4Oc4ccc(cc4)C[C@@H]3N(C)CC2)CC[N+]1(C)C.[Cl-]`, the IC50 entry is “Not Active” and the Ki entry is listed as “Not Active”.

As to `CN(Cc1ccc(C(C)(C)C)cc1)Cc1cccc2ccccc12` [BUTENAFINE], the IC50 result is reported as “Not Active” and the Ki result is “Not Active”.

Regarding `Sc1ncnc2nc[nH]c12` [MERCAPTOPURINE ANHYDROUS], the IC50 result is given as “Not Active” and the Ki entry was “Not Active”.

Turning to `CC(C)(C)NCC(O)c1cc(Cl)c(N)c(Cl)c1` (centres undefined) [CLENBUTEROL], the IC50 entry was “Not Active” and the Ki result is on record as “Not Active”.

As for `Nc1nc2c(ncn2COCCO)c(=O)[nH]1` [ACYCLOVIR], the IC50 entry is given as “Not Active” and the Ki entry is “Not Active”.

As for `c1ccc2c(c1)c1cccc3ccc4cccc2c4c31` [BENZO[E]PYRENE], the IC50 entry is on record as “Not Active” and the Ki result is listed as “Not Active”.

For `O=C(O)CCCc1ccc(N(CCCl)CCCl)cc1` [CHLORAMBUCIL], the IC50 result was “Not Active” and the Ki entry is “Not Active”.

As for `Cc1ccc(N(CC2=NCCN2)c2cccc(O)c2)cc1` [PHENTOLAMINE], the IC50 result is given as “Not Active” and the Ki result is recorded as “Not Active”.

Take `CC(C)(Oc1ccc(Cl)cc1)C(=O)O` [CLOFIBRIC ACID]: the IC50 result is “Not Active” and the Ki entry is given as “Not Active”.

As to `CC1(C)O[C@@H]2C[C@H]3[C@@H]4CCC5=CC(=O)CC[C@]5(C)[C@@]4(F)[C@@H](O)C[C@]3(C)[C@]2(C(=O)CCl)O1` [HALCINONIDE], the IC50 result is on record as “Not Active” and the Ki entry is given as “Not Active”.
